Measurements from patent US8129396B2, “2-[1H-benzimidazol-2(3H)-ylidene]-2-(pyrimidin-2-yl)acetamides and 2-[benzothiazol-2(3H)-ylidene]-2-(pyrimidin-2-yl)acetamides as kinase inhibitors” (Telik, Inc., priority 2008, dated 2012).

Experiments:
[1] = target: T1, VEGFR2 kinase (Homo sapiens, UniProt P35968); test: VEGFR2 kinase assay; assay type: biochemical; conditions: 6 μM ATP, 1 mM MnCl2; rounded to 1 significant figure
T1 construct: purchased Cell Signaling Technology
Text: (§1) The cell lines HL60 (human promyelocytic leukemia) and HCT116 (human colon carcinoma) were obtained from the American Type Culture Collection, Manassas, Va., U.S.A., and HUVEC-2 (human umbilical vein endothelial cells) from BD Biosciences, Bedford, Mass., U.S.A. Aurora A kinase was obtained from Upstate Biotech, Billerica, Mass., U.S.A.; Aurora B kinase from BPS Bioscience, San Diego, Calif., U.S.A.; and VEGFR2 kinase from Cell Signaling Technology, Danvers, Mass., U.S.A. The IMAP FP Screening Express kit was obtained from Molecular Devices, Sunnyvale, Calif., U.S.A.; the CellTiter-Glo assay kit from Promega Corporation, Madison, Wis., U.S.A.; and the Cellular DNA Cytometric Analysis Reagent Kit and BrdU labeling and detection kit from Roche Diagnostics Corporation, Indianapolis, Ind., U.S.A. All products were used in accordance with manufacturer's directions. Kinase inhibition assays and the histone phosphorylation (p-H3) assay were conducted in duplicate, and the cytotoxicity and HUVEC proliferation assays were conducted in triplicate, in each case with solvent control.
This assay was performed as for the Aurora A kinase assay, using VEGFR2 kinase, CSKtide as the substrate with 6 μM ATP and 1 mM MnCl2, a kinase reaction time of 1 hr, and dilution of the binding reagent 1:1200 in binding buffer A/binding buffer B (1:1).

[2] = system: HCT116 (human colon carcinoma) cells; test: HCT116 cytotoxicity assay (CellTiter-Glo); assay type: cell-based; conditions: HCT-116, 72 h, cytotoxicity, three days culture, read-out: HCT116 IC50
Text: as §1
Log-phase cells were trypsinized, collected by centrifugation, and resuspended in a small volume of fresh medium, and the density of viable cells was determined following Trypan Blue staining. Cells were diluted in fresh media (1×10^4 cells/mL for HL60 and 4×10^4 cells/mL for HCT116 cells), the test compounds (concentrations between 0.1 μM and 200 μM, dissolved in DMSO, 50 μL) added immediately after dilution to achieve a final DMSO concentration of 0.5%, then the suspensions added at 150 μL/well to 96-well plates, and incubated overnight to allow attachment in the case of adherent cells. The cells were cultured for three days (about three doubling times). The cells were then collected by centrifugation, and 100 μL of the culture supernatant was replaced by the CellTiter-Glo reagent. After incubation for 15 minutes at room temperature, the plate was read with a luminometer.

[3] = system: p-H3 in HCT116 cells; test: Histone phosphorylation (p-H3) assay; assay type: cell-based; conditions: Homo sapiens, HCT-116; HCT116 cells, 4 hr incubation; read-out: p-H3 IC50
Text: as §1
Log phase HCT116 cells were seeded at 2.5×10^4 cells/well in a 96-well plate and allowed to attach overnight. The test compounds were diluted in DMSO (8 concentrations with serial 3-fold dilutions) and added to the cells (0.5% DMSO final concentration), and the cells incubated for 4 hr. The cells were then washed three times with cold phosphate-buffered saline (PBS), and lysis buffer was added. After 30 min shaking at 4° C. and centrifugation, the supernatants were transferred to a nitrocellulose membrane by a “dot-blot” apparatus. After washing the wells, the membrane was processed for Western blot. Detection of p-H3 and β-actin was performed on the same membrane with primary rabbit anti-p-H3 and mouse anti-β-actin antibodies followed by secondary goat anti-rabbit IRDye800 and goat anti-mouse AlexaFluor 680 antibodies. The membranes were scanned on an Odyssey scanner.

[4] = target: T2, Aurora B kinase (Homo sapiens, UniProt Q96GD4); test: Aurora B kinase assay (IMAP fluorescence polarization); assay type: biochemical; conditions: 10 μM ATP; rounded to 1 significant figure; read-out: Aur-B IC50
T2 construct: purchased BPS Bioscience
Text: as §1
(§2) The kinase reaction was initiated by adding 100 nM fluorescein labeled PKAtide and 10 μM adenosine triphosphate (ATP), and allowed to continue for 45 min at room temperature, after which it was stopped by adding binding reagent (1:400 dilution in binding buffer A). After 30 min of room temperature incubation with shaking, the fluorescence polarization was measured on a LJL plate reader. Aurora B kinase assay: performed as for the Aurora A kinase assay, but using Aurora B kinase instead of Aurora A kinase.

[5] = target: T3, Aurora A kinase (Homo sapiens, UniProt O14965); test: Aurora A kinase assay (IMAP fluorescence polarization); assay type: biochemical; conditions: 10 μM ATP; rounded to 1 significant figure; read-out: Aur-A IC50
T3 construct: purchased Upstate Biotech
T3 sequence (O14965 1-403): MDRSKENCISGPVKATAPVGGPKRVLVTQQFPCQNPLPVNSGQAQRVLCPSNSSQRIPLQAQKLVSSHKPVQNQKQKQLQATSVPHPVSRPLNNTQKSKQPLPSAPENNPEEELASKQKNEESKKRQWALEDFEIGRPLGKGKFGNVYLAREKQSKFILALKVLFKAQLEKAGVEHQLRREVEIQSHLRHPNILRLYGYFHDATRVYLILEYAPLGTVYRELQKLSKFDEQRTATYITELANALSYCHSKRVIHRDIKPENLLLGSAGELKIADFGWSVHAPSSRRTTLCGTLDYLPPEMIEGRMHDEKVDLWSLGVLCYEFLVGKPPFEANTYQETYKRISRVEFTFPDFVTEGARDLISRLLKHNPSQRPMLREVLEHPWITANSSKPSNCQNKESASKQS
Text: as §1
as §2, with “Aurora A kinase assay: the test compounds were diluted in dimethylsulfoxide (DMSO, eight concentrations with serial 3-fold dilutions) and incubated (final DMSO concentration 2.5%) with Aurora A kinase at room temperature for 5 min in kinase reaction buffer with 1 mM dithiothreitol (IMAP FP Screening Express). The” for “The”

[6] = system: HUVEC-2 (human umbilical vein endothelial cells); test: HUVEC VEGF-dependent proliferation assay (BrdU); assay type: cell-based; conditions: VEGF (25 ng/mL)-dependent proliferation, read-out: HUVEC IC50
Text: as §1
HUVEC-2 cells were seeded at 10^4 cells/well in a 96-well plate coated with 0.1% gelatin in complete medium. […] The compounds were serially diluted in DMSO, and added to the cells at 0.5% DMSO final concentration. After 2 hr, VEGF (25 ng/mL) was added; and after a further day, 5-bromo-2-deoxyuridine (BrdU, 10 μM) was added to label proliferating cells, and the cells incubated for another day. The plates were then processed using the Roche BrdU labeling and detection kit, and the VEGF-dependent antiproliferative activity of the compounds determined.

T1 sequence (P35968 20-1356): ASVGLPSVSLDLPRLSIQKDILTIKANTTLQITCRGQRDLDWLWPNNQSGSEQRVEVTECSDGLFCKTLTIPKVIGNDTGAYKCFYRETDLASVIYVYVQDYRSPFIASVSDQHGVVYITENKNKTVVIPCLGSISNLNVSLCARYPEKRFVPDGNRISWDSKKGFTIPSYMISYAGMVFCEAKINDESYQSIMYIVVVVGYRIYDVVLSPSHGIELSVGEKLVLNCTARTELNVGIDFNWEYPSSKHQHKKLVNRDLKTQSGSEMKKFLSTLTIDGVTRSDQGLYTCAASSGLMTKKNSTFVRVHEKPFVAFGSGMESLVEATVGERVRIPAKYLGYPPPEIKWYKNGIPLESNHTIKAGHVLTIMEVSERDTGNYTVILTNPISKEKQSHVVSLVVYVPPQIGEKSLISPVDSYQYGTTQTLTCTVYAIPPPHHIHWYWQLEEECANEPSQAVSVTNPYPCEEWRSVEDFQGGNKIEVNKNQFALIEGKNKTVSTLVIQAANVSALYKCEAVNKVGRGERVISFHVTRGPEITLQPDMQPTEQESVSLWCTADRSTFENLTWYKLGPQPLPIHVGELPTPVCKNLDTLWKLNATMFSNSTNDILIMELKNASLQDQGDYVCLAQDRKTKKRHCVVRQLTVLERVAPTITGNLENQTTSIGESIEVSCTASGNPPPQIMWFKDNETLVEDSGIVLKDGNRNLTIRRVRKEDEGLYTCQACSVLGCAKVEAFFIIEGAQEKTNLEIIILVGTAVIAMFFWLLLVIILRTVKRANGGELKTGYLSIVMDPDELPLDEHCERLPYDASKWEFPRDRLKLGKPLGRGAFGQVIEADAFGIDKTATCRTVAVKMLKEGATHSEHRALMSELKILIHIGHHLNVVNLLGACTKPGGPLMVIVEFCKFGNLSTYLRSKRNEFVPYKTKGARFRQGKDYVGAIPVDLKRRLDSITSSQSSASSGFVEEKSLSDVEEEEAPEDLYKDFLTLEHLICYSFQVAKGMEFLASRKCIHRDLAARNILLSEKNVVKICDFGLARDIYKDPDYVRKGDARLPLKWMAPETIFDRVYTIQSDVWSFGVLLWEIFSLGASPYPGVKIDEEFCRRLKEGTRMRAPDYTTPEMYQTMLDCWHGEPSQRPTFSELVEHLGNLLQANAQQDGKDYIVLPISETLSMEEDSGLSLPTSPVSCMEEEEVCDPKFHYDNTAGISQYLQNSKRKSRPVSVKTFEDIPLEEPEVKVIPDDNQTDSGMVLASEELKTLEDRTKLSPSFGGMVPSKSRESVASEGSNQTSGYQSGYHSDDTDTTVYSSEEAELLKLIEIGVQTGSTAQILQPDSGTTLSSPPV
T2 sequence (Q96GD4 whole entry): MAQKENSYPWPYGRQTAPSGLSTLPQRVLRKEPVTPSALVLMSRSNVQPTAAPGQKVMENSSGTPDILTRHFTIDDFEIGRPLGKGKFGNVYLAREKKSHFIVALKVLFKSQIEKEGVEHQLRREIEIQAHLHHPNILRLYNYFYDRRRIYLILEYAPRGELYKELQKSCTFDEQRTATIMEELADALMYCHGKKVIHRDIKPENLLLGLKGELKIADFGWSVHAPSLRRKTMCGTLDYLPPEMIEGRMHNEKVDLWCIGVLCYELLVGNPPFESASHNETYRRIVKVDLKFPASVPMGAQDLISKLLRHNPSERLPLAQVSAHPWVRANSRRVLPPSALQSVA

IC50 [1] [nM]	IC50 [3] [nM]	IC50 [4] [nM]	IC50 [5] [nM]	Compound	IC50 [2] [nM]	IC50 [6] [nM]
200	900	20	20	NC(=O)/C(=C1\Nc2cc(OCCN3CCOCC3)ccc2S1)c1nccc(C(F)(F)F)n1 [Compound 112A]	2000	200
20	300	20	20	NC(=O)/C(=C1\Nc2ccc(C(=O)Nc3ccc(CN4CCOCC4)cc3)cc2N1)c1nccc(C(F)(F)F)n1 [Compound 72A]	200	80
10	100	20	20	CN1CCN(Cc2ccc3c(c2)S/C(=C(/C(N)=O)c2nccc(C(F)(F)F)n2)N3)CC1 [Compound 93A]	300	30
300	2000	20	100	COc1ccnc(/C(C(N)=O)=C2/Nc3ccccc3S2)n1 [Compound 16A]	2000	2000
30	900	20	3	Cn1ccnc1-c1ccc2c(c1)S/C(=C(/C(N)=O)c1nccc(C(F)(F)F)n1)N2 [Compound 106A]	2000	80
100	500	20	30	NC(=O)C(=C1Nc2ccccc2N1)c1ncc(C(=O)NCCN2CCOCC2)c(C(F)(F)F)n1 [Compound 135A]	4000	600
20	700	20	20	CCN1CCN(CCCNC(=O)c2ccc3c(c2)N/C(=C(/C(N)=O)c2nccc(C(F)(F)F)n2)N3)CC1 [Compound 55A]	300	50
80	400	10	50	NC(=O)/C(=C1\Nc2ccccc2S1)c1ncc(C(=O)NCCN2CCOCC2)c(C(F)(F)F)n1 [Compound 134A]	4000	600
4	40	40	10	NC(=O)/C(=C1\Nc2ccc(C(=O)N3CCC(N)CC3)cc2S1)c1nccc(C(F)(F)F)n1 [Compound 67A]	200	20
5	400	30	30	NCCNC(=O)c1ccc2c(c1)S/C(=C(/C(N)=O)c1nccc(C(F)(F)F)n1)N2 [Compound 63A]	200	60
10	100	20	2	NC(=O)/C(=C1\Nc2ccc(CN3CCOCC3)cc2S1)c1nccc(C(F)(F)F)n1 [Compound 91A]	300	40
400	500	30	70	COc1ccnc(/C(C(N)=O)=C2/Nc3ccc(CN4CCOCC4)cc3S2)n1 [Compound 92A]	5000	60
60	200	10	6	CN1CCN(CCC(=O)Nc2ccc3c(c2)N/C(=C(/C(N)=O)c2nccc(C(F)(F)F)n2)N3)CC1 [Compound 83A]	200	200
40	400	20	30	NC(=O)/C(=C1\Nc2ccc(OCCCN3CCOCC3)cc2S1)c1nccc(C(F)(F)F)n1 [Compound 113A]	600	200
20	200	30	40	CN1CCN(CCCOc2ccc3c(c2)S/C(=C(/C(N)=O)c2nccc(C(F)(F)F)n2)N3)CC1 [Compound 115A]	100	100
20	300	9	100	CN1CCN(C(=O)c2cnc(C(C(N)=O)=C3Nc4ccccc4S3)nc2C(F)(F)F)CC1 (single isomer, unassigned) [Compound 130A, 2-[benzothiazol-2(3H)-ylidene]-2-[5-(4-methylpiperazine-1-carbonyl)-4-trifluoromethylpyrimidin-2-yl]acetamide]	2000	400
10	4000	5	5	NC(=O)/C(=C1\Nc2ccc(C(=O)O)cc2N1)c1nccc(C(F)(F)F)n1 [Compound 28A]	4000	40
20	90	8	30	NC(=O)/C(=C1\Nc2ccc(N3CCC(N4CCCCC4)CC3)cc2S1)c1nccc(C(F)(F)F)n1 [Compound 121A]	1000	900
60	600	20	10	NC(=O)/C(=C1\Nc2ccc(S(=O)(=O)NCCN3CCOCC3)cc2S1)c1nccc(C(F)(F)F)n1 [Compound 128A]	900	60
9	500	5	9	CN1CCN(C(=O)c2ccc3c(c2)N/C(=C(/C(N)=O)c2nccc(C(F)(F)F)n2)N3)CC1 [Compound 58A]	400	60
100	–	30	30	NC(=O)/C(=C1\Nc2ccc(NCCN3CCOCC3)cc2S1)c1nccc(C(F)(F)F)n1 [Compound 124A]	> 20000	3000
